Data as given in patent US20060019907A1, “Guggulsterone: an inhibitor of nuclear factor - kappaB and IkappaBalpha kinase activation and uses thereof” (Research Development Foundation, priority 2004, published 2006).

Key:
NF-κB proteins = target: T1, NF-κB proteins (Homo sapiens, UniProt P19838+Q04206); assay: DNA binding of NF-κB in nuclear extracts incubated with guggulsterone (EMSA); format: biochemical; settings: nuclear extracts from TNF-activated H1299 cells treated with guggulsterone 4 hours at room temperature
T1 construct: endogenous in cells; nuclear extract
T1 sequence (Q04206 whole entry): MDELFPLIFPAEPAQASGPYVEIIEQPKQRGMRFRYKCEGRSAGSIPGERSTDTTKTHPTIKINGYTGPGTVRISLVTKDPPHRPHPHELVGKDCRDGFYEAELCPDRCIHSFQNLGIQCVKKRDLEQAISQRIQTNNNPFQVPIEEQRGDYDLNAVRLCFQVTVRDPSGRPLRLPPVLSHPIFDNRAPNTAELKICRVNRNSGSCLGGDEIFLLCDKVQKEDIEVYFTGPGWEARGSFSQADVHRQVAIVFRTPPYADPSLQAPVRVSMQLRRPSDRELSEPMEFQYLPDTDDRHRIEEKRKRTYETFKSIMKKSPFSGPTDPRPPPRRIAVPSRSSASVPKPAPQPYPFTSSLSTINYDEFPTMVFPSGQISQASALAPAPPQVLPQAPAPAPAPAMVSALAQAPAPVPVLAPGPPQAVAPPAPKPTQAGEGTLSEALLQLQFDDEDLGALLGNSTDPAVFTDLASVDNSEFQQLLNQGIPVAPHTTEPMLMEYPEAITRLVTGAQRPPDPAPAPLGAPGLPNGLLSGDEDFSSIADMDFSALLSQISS
T1 sequence (P19838 1-433 limits assumed): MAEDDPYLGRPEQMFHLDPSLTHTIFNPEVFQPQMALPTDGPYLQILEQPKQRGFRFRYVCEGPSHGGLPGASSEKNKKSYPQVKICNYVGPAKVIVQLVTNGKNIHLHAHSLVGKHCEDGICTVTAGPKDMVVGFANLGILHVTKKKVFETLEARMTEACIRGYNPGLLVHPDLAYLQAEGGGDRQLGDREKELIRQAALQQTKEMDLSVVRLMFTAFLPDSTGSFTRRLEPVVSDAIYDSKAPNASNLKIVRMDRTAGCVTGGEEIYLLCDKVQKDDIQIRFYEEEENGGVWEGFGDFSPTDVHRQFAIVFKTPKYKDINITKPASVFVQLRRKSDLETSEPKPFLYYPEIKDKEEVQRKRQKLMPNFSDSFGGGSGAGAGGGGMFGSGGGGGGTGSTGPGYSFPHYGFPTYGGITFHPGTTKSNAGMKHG
Procedure: NF-κB Activation: To determine NF-κB activation, EMSA was carried out as previously described (Chaturvedi et al., 2000). Briefly, nuclear extracts prepared from cells (2×10^6/ml) treated with TNF were incubated with ^32P-end-labeled 45-mer double-stranded NF-κB oligonucleotide (8 μg of protein with […] of DNA) from the human immunodeficiency virus long terminal repeat, 5′-[…] GGCGTGG-3′ (SEQ ID NO:1) (boldface indicates NF-κB binding sites), for 15 min at 37° C. The DNA-protein complex formed was separated from free oligonucleotide on 6.6% native polyacrylamide gels. A double-stranded mutated oligonucleotide, 5′-[…]-3′ (SEQ ID NO:2), was used to examine the specificity of binding of NF-κB to the DNA. The specificity of binding was also examined by competition with the unlabeled oligonucleotide. For supershift assays, nuclear extracts prepared from TNF-treated cells were incubated with antibodies against either the p50 or the p65 subunit of NF-κB for 30 min at room temperature before the complex was analyzed by EMSA. The dried gels were visualized, and radioactive bands were quantitated using a PHOSPHORIMAGER™ (Molecular Dynamics, Sunnyvale, Calif.) using IMAGEQUANT™ software. […]

p65 = assay: TNF-induced phosphorylation and nuclear translocation of p65; format: cell-based, human; settings: H1299, 50 μM, 4 hours, 0.1 nM TNF
Procedure: Western Blot Analysis: To determine the effect of guggulsterone on TNF-dependent IκBα phosphorylation, IκBα degradation, p65 translocation and p65 phosphorylation, cytoplasmic extracts were prepared as previously described (Majumdar et al., 2001) from H1299 (2×10^6/ml) pretreated with 50 μM guggulsterone for 4 h and then exposed to 0.1 nM TNF for various times. Thirty micrograms of cytoplasmic protein was resolved on 10% SDS-PAGE gel, transferred to a nitrocellulose membrane, blocked with 5% non-fat milk, and probed with specific antibody against IκBα, posphorylated IκBα, p65 and phosphorylated p65. To determine the expression of cyclin D1, COX-2, MMP-9, clAP-1, xlAP, TRAF1, Bcl-2, Bfl-1, cFLIP, and survivin, whole-cell extracts were prepared from treated cells (2×10^6 cells in 2 ml medium), 30-50 μg protein was resolved on SDS-PAGE gel and probed by Western blot with specific antibodies as per manufacturer's recommended protocol. The blots were washed, exposed to HRP-conjugated secondary antibodies for 1 hour, and finally detected by ECL reagent (Amersham Pharmacia Biotech.). The bands were quantitated using a Personal Densitometer Scan v1.30 using IMAGEQUANT™ software version 3.3 (Molecular Dynamics).
Immunolocalization of NF-κB p65: The effect of guggulsterone on […] nuclear translocation of p65 was examined using an immunocytochemical method as described previously (Bharti et al., 2003). Stained slides were mounted with mounting medium (Sigma Chemical) and analyzed under an epifluorescence microscope (Labophot-2; Nikon, Tokyo, Japan). Images were captured using a PHOTOMETRICS COOLSNAP CF™ color camera (Nikon, Lewisville, Tex.) and METAMORPH™ version 4.6.5 software (Universal Imaging, Downingtown, Pa.).

COX2 promoter = assay: COX-2 promoter-dependent reporter luciferase gene expression; format: cell-based, human; settings: 0.1 nM TNF 24 hours
Procedure: COX-2 Promoter-dependent Reporter Luciferase Gene Expression: COX-2 promoter activity was examined as described elsewhere (Shishodia et al., 2003). To further determine the effect of guggulsterone on COX-2 promoter, […] cells were seeded at a concentration of 1.5×10^5 cells per well in six-well plates. After overnight culture, the cells in each well were transfected with 2 μg DNA consisting of COX-2 promoter-luciferase reporter plasmid, along with 6 μl of LIPOFECTAMINETM 2000 (Life Technologies, Inc.) according to the manufacturer's protocol. The COX-2 promoter (-375 to +59), amplified from human genomic DNA by using the primers [NT] (sense) (SEQ ID NO:3) and [NT] (antisense) (SEQ ID NO:4), was provided by Dr. Xiao-Chun Xu (M.D. Anderson Cancer Center). After a 6 hour exposure to the transfection mixture, the cells were incubated in medium containing guggulsterone for 12 hours. The cells were exposed to TNF (0.1 nM) for 24 hours and then harvested. Luciferase activity is measured by using the Promega luciferase assay system according to the manufacturer's protocol and detected by using […] 2010 (Analytical Luminescence Laboratory, San Diego, Calif.).

U937 cells [1] = assay: Cell cycle, flow cytometric analysis; format: cell-based, human; settings: 10 μM, propidium iodide flow cytometry
Procedure: Flow cytometric analysis. To determine the effect of guggulsterone on the cell cycle, U937 cells were treated for different times, washed, and fixed with 70% ethanol. After an overnight incubation at −20° C., cells were washed with PBS, and then suspended in staining buffer (Propidium iodide, 10 μg/ml; Tween-20, 0.5%; RNase, 0.1% in PBS). The cells were analyzed using a FACS Vantage flow cytometer that uses CellQuest acquisition and analysis programs (Becton Dickinson, San Jose, Calif.). Gating was set to exclude cell debris, cell doublets, and cell clumps.

U937 cells [2] = assay: Thymidine incorporation assay; format: cell-based, human; settings: 72 h
Procedure: Thymidine incorporation assay. The antiproliferative effects of guggulsterone were also monitored by the thymidine incorporation method. For this, 5000 cells in 100 μL medium were cultured in triplicate in 96-well plates in the presence or absence of guggulsterone for 72 hours. At 6 hours before the completion of experiment, cells were pulsed with 0.5 μCi (0.0185 MBq) ^3H-thymidine, and the uptake of ^3H-thymidine was monitored by means of a Matrix-9600 β-counter (Packard Instruments, Downers Grove, Ill.).

[3] = target: farnesoid X receptor (FXR) (Homo sapiens, UniProt Q96RI1); settings: cited from earlier work
Sequence of farnesoid X receptor (FXR) (Q96RI1 whole entry, species assumed): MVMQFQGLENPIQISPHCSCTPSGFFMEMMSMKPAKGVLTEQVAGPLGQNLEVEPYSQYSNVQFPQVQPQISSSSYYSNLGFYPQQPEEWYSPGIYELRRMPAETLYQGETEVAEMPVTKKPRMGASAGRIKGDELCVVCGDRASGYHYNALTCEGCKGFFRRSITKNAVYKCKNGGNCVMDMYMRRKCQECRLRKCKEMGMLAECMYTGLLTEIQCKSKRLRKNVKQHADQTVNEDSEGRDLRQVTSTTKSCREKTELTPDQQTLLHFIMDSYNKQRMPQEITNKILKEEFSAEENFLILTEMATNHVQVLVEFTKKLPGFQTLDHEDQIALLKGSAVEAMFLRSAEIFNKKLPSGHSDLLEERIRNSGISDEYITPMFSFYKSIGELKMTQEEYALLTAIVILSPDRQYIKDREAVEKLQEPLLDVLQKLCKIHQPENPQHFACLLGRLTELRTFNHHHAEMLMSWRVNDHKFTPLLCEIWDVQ

Question: What does the source list for CC=C1C(=O)C[C@H]2[C@@H]3CCC4=CC(=O)CC[C@]4(C)[C@H]3CC[C@]12C [guggulsterone, 4,17(20)-pregnadiene-3,16-dione]?
Answer: DNA-binding ability of NF-κB proteins (NF-κB proteins): did not modify the DNA-binding ability of NF-κB proteins; TNF-induced nuclear translocation of p65, Western blot (p65): abolished the TNF-induced nuclear translocation of p65; TNF-induced nuclear translocation of p65, immunocytochemistry (p65): abrogated the p65 translocation; TNF-induced phosphorylation of p65 (p65; Western blot): suppressed p65 phosphorylation almost completely; TNF-induced COX2 promoter activity (COX2 promoter): abolished the COX2 promoter activity in a dose-dependent manner; cell cycle arrest (U937 cells [1]): arrested the cell cycle in S-phase; proliferation of U937 cells, 3H-thymidine incorporation (U937 cells [2]): inhibits proliferation in U937 cells; action on bile acid receptor farnesoid X receptor (FXR) ([3]; Urizar et al., 2002, Wu et al.): antagonist; expression of bile acid-activated genes ([3]; Urizar et al., 2002, Cui et al., 2003): decrease the expression of bile acid-activated genes
